According to patent US20230031406A1, “COMPOUNDS AND COMPOSITIONS FOR TREATING CONDITIONS ASSOCIATED WITH NLRP ACTIVITY” (Novartis AG, priority 2018, published 2023):
pIC50: −log10 of the molar value. Like-named read-outs stand apart in the source and are kept apart here. Blank lines part the entries; values can stand above or below the compound they belong to.

Tested on: PMA-differentiated THP-1 cells
Experiment: IL-1β production in PMA-differentiated THP-1 cells stimulated with gramicidin (hTHP-1 assay containing 2% fetal bovine serum; Procedures 1 and 2)
Format: cell-based, human
Settings: 2% fetal bovine serum
In short: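 PMA 20 ng/ml 16-18 h → trypsinise → 50,000 cells/well, RPMI/2% FBS; cpd 1 h (11-pt, 100–0.0017 μM; DMSO 0.37%); gramicidin 5 μM, 2 h; spin; supernatant IL-1β via HTRF.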

[1] = Table B2, class symbols, read-out: hTHP-1 IC50
[2] = Homo sapiens, THP-1, Table B2, class symbols, read-out: hTHP-1 IC50
[3] = Homo sapiens, THP-1, Table B1, numeric bounds, read-out: Average IC50 of compounds in hTHP-1 assay: hTHP-1 IC50
[4] = Table B4, class symbols, read-out: hTHP-1 IC50
[5] = Table B1, class symbols, read-out: Average IC50 of compounds in hTHP-1 assay: hTHP-1 IC50

Compound: Cc1c(C(F)(F)F)nc2c(c1NC(=O)N=S(N)(=O)c1cnc(C(C)(C)O)s1)CCC2 (centres unmarked) [Compound 661, 2-(2-Hydroxypropan-2-yl)-N′-((3-methyl-2-(trifluoromethyl)-6,7-dihydro-5H-cyclopenta[b]pyridin-4-yl)carbamoyl)thiazole-5-sulfonimidamide]
pIC50 [2]: 5.30 to 6.00

Compound: CCn1cc(F)c(S(N)(=O)=NC(=O)Nc2c3c(nc4c2CCC4)CCC3)n1 (centres unmarked) [Example 736, 1-Ethyl-4-fluoro-N′-((1,2,3,5,6,7-hexahydrodicyclopenta[b,e]pyridin-8-yl)carbamoyl)-1H-pyrazole-3-sulfonimidamide]
pIC50 (Homo sapiens, THP-1, Table B4, class symbols, read-out: hTHP-1 IC50): 6.00 to 6.70

Compound: CCc1c(C(F)(F)F)nc2c(c1NC(=O)N=S(N)(=O)c1nn(C(F)F)cc1F)CCC2 (centres unmarked) [Example 572, 1-(Difluoromethyl)-N′-((3-ethyl-2-(trifluoromethyl)-6,7-dihydro-5H-cyclopenta[b]pyridin-4-yl)calbamoyl)-4-fluoro-1H-pyrazole-3-sulfonimidamide]
pIC50 (Homo sapiens, THP-1, Table B3, hTHP-1 assay, class symbols, read-out: IC50): 5.30 to 6.00

Compound: CCn1cc(F)c(S(N)(=O)=NC(=O)Nc2c3c(nc(C)c2-c2ccccc2)CCC3)n1 (single isomer, unassigned) [Example 770, (S) or (R)-1-ethyl-4-fluoro-N′-((2-methyl-3-phenyl-6,7-dihydro-5H-cyclopenta[b]pyridin-4-yl)carbamoyl)-1H-pyrazole-3-sulfonimidamide]
pIC50 [4]: 6.70 to 7.40

Compound: CC1CCc2c1nc1c(c2NC(=O)N=S(N)(=O)c2cc(C(C)(C)O)cs2)CCC1C (single isomer, unassigned) [Compound 131d, (S,R,R) or (S,S,S) or (S,R,S) and (S,S,R)-N′-((3,5-dimethyl-1,2,3,5,6,7-hexa-hydrodicyclopenta[b,e]pyridin-8-yl)carbamoyl)-4-(2-hydroxypropan-2-yl)thio-phene-2-sulfonimidamide]
pIC50 [5]: 4.52 to 5.30

Compound: Cc1c(C(F)(F)F)nc2c(c1NC(=O)N=S(N)(=O)c1nn(C(C)C)cc1F)CCC2 (single isomer, unassigned) [Example 789, (R) or (S)-4-fluoro-1-isopropyl-N′-((3-methyl-2-(trifluoromethyl)-6,7-dihydro-5H-cyclopenta[b]pyridin-4-yl)carbamoyl)-1H-pyrazole-3-sulfonimidamide]
pIC50 [4]: 6.70 to 7.40

Compound: CC(C)(O)c1ncc(S(N)(=O)=NC(=O)Nc2c3c(nc4c2CC4)CCC3)s1 (centres unmarked) [Compound 672, 2-(2-Hydroxypropan-2-yl)-N′-((2,4,5,6-tetrahydro-1H-cyclobuta[b]cyclopenta[e]pyridin-7-yl)carbamoyl)thiazole-5-sulfonimidamide]
pIC50 [2]: 4.52 to 5.30

Compound: CC1(C)CCc2c1nc1c(c2NC(=O)NS(=N)(=O)c2cnc([C@@](C)(O)COCCOCCOCCOCCO)s2)CCC1 (stereo partly drawn) [Example 584, 2-((S)-1,14-dihydroxy-3,6,9,12-tetraoxapentadecan-14-yl)-N-((3,3-dimethyl-1,2,3,5,6,7-hexahydrodicyclopenta[b,e]pyridin-8-yl)carbamoyl)thiazole-5-sulfonimidamide]
pIC50 (Homo sapiens, THP-1, Table B3, hTHP-1 assay, numeric values, read-out: IC50): < 4.52

Compound: NS(=O)(=NC(=O)Nc1c2c(nc3c1CCC31CC1)CCC2)c1cnn(C(F)F)c1 (centres unmarked) [Compound 638, 1-(Difluoromethyl)-N′-((1′,5′,6′,7′-tetrahydro-2′H-spiro[cyclopropane-1,3′-dicyclopenta[b,e]pyridin]-8′-yl)carbamoyl)-1H-pyrazole-4-sulfonimidamide]
pIC50 [2]: 4.52 to 5.30

Compound: CC(C)(O)c1ncc(S(N)(=O)=NC(=O)Nc2c3c(nc4c2CCC42CC2)CCC3)s1 (single isomer, unassigned) [Compound 136a, (S) or (R)-2-(2-hydroxy-propan-2-yl)-N′-((1′,5′,6′,7′-tetrahydro-2′H-spiro[cyclopropane-1,3′-dicyclopenta[b,e]pyridin]-8′-yl)carbamoyl)thiazole-5-sulfonimidamide]
pIC50 [5]: 5.30 to 6.00

Compound: Cc1c(C2CC2)nc2c(c1NC(=O)N=S(N)(=O)c1sc(C(C)(C)O)cc1F)CCC2 (centres unmarked) [Compound 174, N′-((2-cyclopropyl-3-methyl-6,7-dihydro-5H-cyclopenta[b]pyridin-4-yl)carbamoyl)-3-fluoro-5-(2-hydroxypropan-2-yl)thiophene-2-sulfonimidamide]
pIC50 (Homo sapiens, THP-1, Table B1, class symbols, read-out: Average IC50 of compounds in hTHP-1 assay: hTHP-1 IC50): 6.00 to 6.70

Compound: CCc1cc(NC(=O)N=S(N)(=O)c2cnc(C(C)(C)O)s2)c2c(n1)CCC2 (single isomer, unassigned) [Compound 137a, (R) or (S)-N′-((2-ethyl-6,7-dihydro-5H-cyclopenta[b]pyridin-4-yl)carbamoyl)-2-(2-hydroxypropan-2-yl)thiazole-5-sulfonimidamide]
pIC50 (Table B1, numeric bounds, read-out: Average IC50 of compounds in hTHP-1 assay: hTHP-1 IC50): < 5.00

Compound: Cc1cc(C(C)(C)O)sc1S(N)(=O)=NC(=O)Nc1c2c(nc3c1CCC3)CCC2 (centres unmarked) [Compound 695, N-((1,2,3,5,6,7-hexahydrodicyclopenta[b,e]pyridin-8-yl)carbamoyl)-5-(2-hydroxypropan-2-yl)-3-methylthiophene-2-sulfonimidamide]
pIC50 [2]: 4.52 to 5.30

Compound: CC(C)n1cc(F)c(S(N)(=O)=NC(=O)Nc2c3c(nc4c2CCC4)CCC3)n1 (single isomer, unassigned) [Example 785, (R) or (S)-4-fluoro-N′-((1,2,3,5,6,7-hexahydrodicyclopenta [b,e]pyridin-8-yl)carbamoyl)-1-isopropyl-1H-pyrazole-3-sulfonimidamide]
pIC50 [4]: 6.70 to 7.40

Now from value to compound:

pIC50 (Homo sapiens, THP-1, Table B2, numeric bounds, read-out: hTHP-1 IC50): < 4.52
Compound: Cc1c(C2CC2)nc(C2CC2)c(C)c1NC(=O)N=S(N)(=O)c1cc(C(C)(C)O)cs1 (single isomer, unassigned) [Compound 612a, (S) or (R)-N′-((2,6-dicyclopropyl-3,5-dimethylpyridin-4-yl)carbamoyl)-4-(2-hydroxypropan-2-yl)thiophene-2-sulfonimidamide]

pIC50 [1]: 6.00 to 6.70
Compound: CCC1CCc2c1nc1c(c2NC(=O)N=S(N)(=O)c2sc(C(C)(C)O)cc2F)CCC1 (single isomer, unassigned) [Compound 671d, (R, R) or (R, S) or (S, R) or (S, S)-N′-((3-ethyl-1,2,3,5,6,7-hexahydrodicyclopenta [b,e]pyridin-8-yl)carbamoyl)-3-fluoro-5-(2-hydroxypropan-2-yl) thiophene-2-sulfonimidamide]

pIC50 [2]: 5.30 to 6.00
Compound: CCc1ccsc1S(N)(=O)=NC(=O)Nc1c2c(nc3c1CC[C@H]3C)CCC2 (some centres unmarked) [Compound 725a]

pIC50 [1]: 6.70 to 7.40
Compound: C[C@@H]1CCc2c1nc1c(c2NC(=O)N=S(N)(=O)c2sc(CN(C)C)cc2F)CCC1 (single isomer, unassigned) [Compound 636b, (R) or (S)-5-((Dimethylamino)methyl)-3-fluoro-N′-(((R)-3-methyl-1,2,3,5,6,7-hexahydrodicyclopenta [b,e]pyridin-8-yl)carbamoyl) thiophene-2-sulfonimidamide]

pIC50 [3]: < 4.52
Compound: CC1(C)Cc2nc3c(c(NC(=O)N=S(N)(=O)c4cnc(C(C)(C)O)s4)c2C1)CCC3 (single isomer, unassigned) [Compound 147a, (S) or (R)-N′-((2,2-dimethyl-1,2,3,5,6,7-hexahydrodicyclo-penta[b,e]pyridin-8-yl)carbamoyl)-2-(2-hydroxypropan-2-yl)thiazole-5-sulfonimidamide]

pIC50 [3]: < 4.52
Compound: CC(C)(O)c1ccc(S(N)(=O)=NC(=O)Nc2c3c(nc4c2CCC4)CCC3)cn1 (single isomer, unassigned) [Compound 156a, (S) or (R)-N′-((1,2,3,5,6,7-hexahydrodicyclo-penta[b,e]pyridin-8-yl)carbamoyl)-6-(2-hydroxypropan-2-yl)pyridine-3-sulfonimidamide]
